Assay results from patent publication US5049637A, “1,2,3,4,10,14b-hexahydrodibenzo[c,f]pyrazino-[1,2-a]azepino derivatives and 10-aza, 10-oxa and 10-thia analogues” (Monash University, priority 1987, dated 1991).
Where a name gives a salt, the structure may show the parent alone.

What was measured:
[1] = system: isolated guinea pig ileum (carbachol-induced contractions); experiment: Block of carbachol-induced contraction of the isolated guinea-pig ileum; details: block of contractions of isolated guinea pig ileum induced by carbachol
Description: (§1) Compounds according to formula I were tested for their ability to block contractions of the isolated guinea pig ileum induced by KCl, carbachol, or histamine at a concentration of 10^-7 M. Ileum preparations were prepared according to standard methodology. The concentrations shown are the minimum required to show activity.

[2] = system: isolated guinea pig ileum (histamine-induced contractions); experiment: Block of histamine-induced contraction of the isolated guinea-pig ileum; details: for minimal effective concentration: Cavia porcellus, isolated guinea pig ileum, histamine 10^-7 M, read-out: Effect on Histamine: minimum concentration required to show activity; for Effect on Histamine: block of contractions of isolated guinea pig ileum induced by histamine at 10^-7 M
Description: (§2) The compound of Example 2 was found in low concentrations to inhibit contractions of the guinea-pig isolated ileum and rat isolated stomach strip caused by histamine and 5-hydroxytryptamine respectively. […] Concomitantly, the depressor effects of histamine were blocked, as were the pressor effects of 5-hydroxytryptamine for over 30 minutes. The pressor effects of 5-hydroxytryptamine in anaesthetised and pithed rats were inhibited by intravenous doses of 0.3-1.0 mg/kg body weight. Slightly higher doses reduced the bradycardia and the depressor response (the Bezold-Jarisch reflex mediated by 5-HT3 receptors) to 5-hydroxytryptamine in anaesthetised rats. The drug inhibited oedema in the rat paw caused by intraplantar 5-hydroxytryptamine. […] In mice it inhibited diarrhoea caused by L-5-hydroxytryptophan. In guinea pigs, intravenous doses of 0.03 mg/kg and above reduced the bronchoconstrictor effects of histamine and 5-hydroxytryptamine.
as §1

[3] = system: rat isolated stomach strip (5-hydroxytryptamine-induced contractions); experiment: Contractions of rat isolated stomach strip caused by 5-hydroxytryptamine
Description: as §2

[4] = system: arterial blood pressure and heart rate; experiment: Arterial blood pressure, heart rate and pressor responses to noradrenaline, sympathetic nerve stimulation and tyramine after intravenous injection into rats; assay type: in vivo, rat; details: for minimal effective dose: intravenous
[5] = system: arterial blood pressure and heart rate; experiment: Arterial blood pressure, heart rate and pressor responses to noradrenaline, sympathetic nerve stimulation and tyramine after intravenous injection into cats; assay type: in vivo, cat
[6] = system: pressor effects of 5-hydroxytryptamine; experiment: Pressor effects of 5-hydroxytryptamine in rats; assay type: in vivo, rat; details: for minimal effective dose: rat, intravenous, read-out: Intravenous dose depressing/reducing the pressor responses to 5-hydroxytryptamine
Description: as §2
(§3) In cats, the effects of the ganglion stimulant McNeil -A-343 and histamine were reduced. Following intravenous injection into guinea-pigs, […] reduced histamine and 5-hydroxytryptamine induced broncho-constriction. Concentrations of 1 μg/ml or greater relaxed the isolated rat uterus in vitro.
(§4) The compound of Example 4 when injected into rats at intravenous doses of 0.3 mg/kg or greater reduced the pressor effects of 5-hydroxytryptamine and also the depressor effects of histamine. In cats, the effect of histamine was reduced after these doses also.

[7] = system: pressor effects of 5-hydroxytryptamine; experiment: Pressor effects of 5-hydroxytryptamine in cats; assay type: in vivo, cat; details: intravenous 0.1 mg/kg or greater
Description: as §2

[8] = system: depressor effects of histamine; experiment: Depressor effects of histamine in rats; assay type: in vivo, rat
Description: as §2, §4

[9] = system: depressor effects of histamine; experiment: Effects of histamine in cats; assay type: in vivo, cat; details: intravenous
Description: as §2, §3, §4

[10] = system: 5-HT3 receptors (Bezold-Jarisch reflex); experiment: Bradycardia and depressor response (Bezold-Jarisch reflex) to 5-hydroxytryptamine in anaesthetised rats; assay type: in vivo, rat; details: doses slightly higher than 0.3-1.0 mg/kg i.v.
Description: as §2

[11] = system: rat paw oedema caused by 5-hydroxytryptamine; experiment: Oedema in the rat paw caused by intraplantar 5-hydroxytryptamine; assay type: in vivo
Description: as §2

[12] = system: diarrhoea caused by L-5-hydroxytryptophan; experiment: Diarrhoea caused by L-5-hydroxytryptophan in mice; assay type: in vivo, mouse
Description: as §2

[13] = system: bronchoconstrictor effects of histamine and 5-hydroxytryptamine; experiment: Histamine and 5-hydroxytryptamine induced bronchoconstriction in guinea pigs; assay type: in vivo, guinea pig; details: Cavia porcellus, intravenous, read-out: Intravenous dose reducing histamine and 5-hydroxytryptamine bronchoconstriction
Description: as §2, §3, §4
(§5) Thus doses of 1 mg/kg given intraperitoneally attenuated the facilitation of spinal reflex activity caused by p-chloroamphetamine, and also the facilitation of spinal reflexes induced by fenfluramine in spinal and decerebrate rats. […] The drug in doses of 10 and 20 mg/kg intraperitoneally and in doses of 20 mg/kg by mouth attenuated morphine-induced catalepsy. We conclude therefore that this drug is an orally active drug with central actions, particularly affecting serotonergic mechanisms, but has no effect in vitro (Table 1). […] Thus it was found after intravenous doses of 0.03 mg/kg to reduce histamine and 5-hydroxytryptamine bronchoconstriction in the guinea pig.

[14] = system: central nervous system (spinal flexor reflex); experiment: Spinal flexor reflex in the rat; assay type: in vivo; details: mianserin in low doses
[15] = system: central nervous system (morphine induced catalepsy); experiment: Morphine induced catalepsy in the rat; assay type: in vivo; details: rat; mianserin in low doses
Description: as §5

[16] = system: central nervous system (L-5-hydroxytryptophan-induced head twitch); experiment: L-5-hydroxytryptophan-induced head twitch in the mouse; assay type: in vivo; details: mianserin in low doses
conscious cats = experiment: Behavioural changes and acute toxicity in the cat; assay type: in vivo
[17] = Penetration into the central nervous system; assay type: in vivo; details: concluded from four CNS test situations
[18] = system: isolated guinea pig ileum (KCl-induced contractions); experiment: Block of KCl-induced contraction of the isolated guinea-pig ileum; details: block of contractions of isolated guinea pig ileum induced by KCl
Description: as §1

[19] = system: effects of the ganglion stimulant McNeil -A-343; experiment: Effects of the ganglion stimulant McNeil-A-343 in cats; assay type: in vivo, cat
Description: as §3

isolated rat uterus = experiment: Isolated rat uterus in vitro
[20] = system: arterial blood pressure and heart rate; experiment: Arterial blood pressure and heart rate in guinea pigs after intravenous doses; assay type: in vivo, guinea pig; details: intravenous 0.01 mg/kg or greater
[21] = rats, intravenous 0.1 mg/kg or greater
[22] = intravenous 0.1 mg/kg or greater

## N=C(N)N1CCN2c3ccccc3Cc3ccccc3C2C1 (stereo not shown) [Example 2, 2-Carboxamidino-1,2,3,4,10,14b-hexahydrodibenzo [c,f]pyrazino[1,2-a]azepineHydrochloride]
[1]
  Effect on Carbachol: - (no effect)
[2]
  minimal effective concentration: 0.01 µM
  Effect on Histamine: ++
[2]; guinea-pig isolated ileum, relatively resistant to washing
  Nature of the antagonism to histamine: persistent and non-competitive
[2]; low concentrations
  Contractions of the guinea-pig isolated ileum caused by histamine: inhibit
[3]; low concentrations
  Contractions of rat isolated stomach strip caused by 5-hydroxytryptamine: inhibit
[3]; rat isolated stomach strip, relatively resistant to washing
  Nature of the antagonism to 5-hydroxytryptamine: persistent and non-competitive
[4]; Rattus norvegicus, rats, read-out: Intravenous dose causing long-lasting rises in arterial blood pressure and heart rate
  minimal effective dose: ≥ 0.1 mg/kg
[4]; [21]
  Pressor responses of the indirectly acting sympathomimetic agent tyramine: blockade
  Pressor responses to noradrenaline and sympathetic nerve stimulation: potentiation
[5]; Felis catus, intravenous, read-out: Intravenous dose causing long-lasting rises in arterial blood pressure and heart rate
  minimal effective dose: ≥ 0.1 mg/kg
[5]; [22]
  Pressor responses of the indirectly acting sympathomimetic agent tyramine: blockade
  Pressor responses to noradrenaline and sympathetic nerve stimulation: potentiation
[6]; [21]
  Duration of block of the pressor effects of 5-hydroxytryptamine: over 30 minutes
[7]
  Duration of block of the pressor effects of 5-hydroxytryptamine: over 30 minutes
[8]; [22]
  Depressor effects of histamine: blocked
[9]
  Effects of histamine (depressor) in cats: blocked
[10]
  Bradycardia and depressor response (Bezold-Jarisch reflex) to 5-hydroxytryptamine: reduced
[11]; oral and subcutaneous
  Oedema in the rat paw caused by intraplantar 5-hydroxytryptamine: inhibited
[11]; rat paw oedema
  Oral absorption indicated by ratio of oral to subcutaneous dose: relatively good oral absorption
[12]
  Diarrhoea caused by L-5-hydroxytryptophan: inhibited
[13]
  minimal effective dose: ≥ 0.03 mg/kg
[14]
  Action in spinal flexor reflex test: failed to demonstrate any inhibitory or other actions
[15]
  Action in morphine induced catalepsy test: failed to demonstrate any inhibitory or other actions
[16]
  Action in L-5-hydroxytryptophan-induced head twitch test: failed to demonstrate any inhibitory or other actions
Conscious cats; cat
  Action on the central nervous system: behavioural changes in the cat: failed to demonstrate any inhibitory or other actions
Conscious cats; conscious cats, relatively large subcutaneous doses
  Overt behavioural changes or acute toxicity: No overt behavioural changes or acute toxicity
[17]
  Penetration into the central nervous system: does not penetrate into the central nervous system

## c1ccc2c(c1)Cc1ccccc1N1CCN(C3=NCCN3)CC21 (stereo not shown) [Example 3, 2-(2-Imidazolino)-1,2,3,4,10,14b-hexahydrodibenzo [c,f]pyrazino[1,2-a]azepine p-toluenesulphonate]
[18]
  Effect on KCl: - (no effect)
[1]
  Effect on Carbachol: - (no effect)
[2]
  minimal effective concentration: 0.01 µM
  Effect on Histamine: ++
[4]; rat, read-out: Intravenous dose causing rises in arterial blood pressure
  minimal effective dose: ≥ 0.1 mg/kg
[6]
  minimal effective dose: ≥ 0.1 mg/kg
[9]
  Effects of histamine (depressor) in cats: reduced
[13]
  minimal effective dose: 0.01 mg/kg
[19]
  Effects of the ganglion stimulant McNeil -A-343: reduced
Isolated rat uterus; Rattus norvegicus, read-out: Concentration relaxing the isolated rat uterus
  minimal effective concentration: ≥ 1 µg/mL

## NC(=S)N1CCN2c3ccccc3Cc3ccccc3C2C1 (stereo not shown) [Example 4, 2-Thiocarboxamido-1,2,3,4,10,14b-hexahydrodibenzo [c,f]pyrazino[1,2-a]azepine]
[18]
  Effect on KCl: - (no effect)
[1]
  Effect on Carbachol: - (no effect)
[2]
  minimal effective concentration: 0.01 to 0.1 µM
  Effect on Histamine: ++
[6]
  minimal effective dose: ≥ 0.3 mg/kg
[8]; Rattus norvegicus, intravenous, read-out: Intravenous dose reducing the depressor effects of histamine
  minimal effective dose: ≥ 0.3 mg/kg
[9]
  Effects of histamine (depressor) in cats: reduced
[13]
  minimal effective dose: ≥ 0.01 mg/kg
Isolated rat uterus
  Concentration reducing contractions of the isolated rat uterus caused by 5-hydroxytryptamine or high potassium concentrations: ≥ 0.1 µg/mL
Isolated rat uterus; 0.1 μg/ml or greater
  Anti-spasmodic action: anti-spasmodic action
[20]
  Effects on arterial blood pressure and heart rate compared with the compound of Example 2: smaller effects
